How the values were obtained:
[1] = brain mets patients; cited from earlier work
human SHSY-5Y cells = test: Neuroprotection of differentiated SHSY-5Y cells against parkinsonian neurotoxins (CFDA cell viability); type: cell-based
Protocol: Neuroprotection was tested in the well-established neuronal model of human SHSY-5Y cells (Lopes, F. M.,. et al. (2010) Brain Res. 1337, 85-94) treated with parkinsonian neurotoxins. Human SHSY-5Y cells were grown in 24 well dishes and differentiated into neuron-like cells by treatment with 10 μM retinoic acid (RA) for 7 days (FIG. 8A).
Cell viability was quantified by the CFDA assay as described previously (Sandhu, J. K., et al. (2009) Neurobiol. Dis. 33, 405-414.).
Recombinant human GDNF at 50 ng/ml was used as a positive control.

[2] = MR guided focused ultrasound, one hemisphere sonicated
Protocol: AAV2-GFP MDCs were injected into healthy rodents and FUS sonications used to open the BBB in the two brain regions affected by Parkinson's disease, the striatum (ST) and substantia nigra (SN). MR contrast agent gadolinium was co-injected and MR imaging performed to confirm BBB opening in the two regions.
CDNF protein neurotrophic drug was conjugated to MDCs and delivered to the SN and ST in this manner. Only one hemisphere was sonicated so the animals acted as their own control.

[3] = patients; cited from earlier work

Substance: Keytruda: checkpoint inhibitor antibody
- Response, share of patients [1]: about one third

Substance: CDNF-MDCs: Cerebral Dopamine Neurotrophic factor protein conjugated to microbubbles
- Neuroprotection against thapsigargin (cell viability) (human SHSY-5Y cells; 1.0 μM thapsigargin ~16 h, pre-treatment, rhGDNF 50 ng/ml, CDNF-MDCs 25-250 ng/ml): completely protected
- Neuroprotection against MPP+ (cell viability) (human SHSY-5Y cells; 1.0 mM MPP+ ~16 h, pre-treatment, rhGDNF 50 ng/ml, CDNF-MDCs 25-250 ng/ml): completely protected
- Concentrations at which maximum neuroprotection was reached (human SHSY-5Y cells; MPP+ or thapsigargin): 25 to 250 ng/mL
- CDNF concentration delivered to ST and SN, sonicated vs. non-sonicated hemisphere (ELISA tissue analysis) [2]: significant CDNF concentration delivered to the sonicated hemispheres

Substance: ipilimumab
- Incidence of grade 3 or -4 treatment-related AEs [3]: 28%
